Here are results for 14 compounds from patent publication US12448389B2, “BRM targeting compounds and associated methods of use” (Prelude Therapeutics Incorporated, priority 2020, dated 2025).

Assay [1] concerns the target T1, SMARCA2-HiBiT (Homo sapiens, UniProt P51531).
T1 construct: SMARCA2-HiBiT knock-in Hela monoclonal cell (CS302366); host or cells: HeLa monoclonal knock-in line (CRISPR HiBiT knock-in at the endogenous locus, heterozygous)
Put plainly: SMARCA2 HiBiT degradation assay in HeLa cells. In kind it is cell-based. As to conditions: 18 hours incubation; for DC50: read-out: HeLa_HiBit-SM2 DC50; for Dmax: HeLa, read-out: HeLa-HiBit-SM2 Dmax (%). An outline of the steps:
(§1)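 HeLa monoclonal lines with heterozygous HiBiT knock-in were seeded at 2500 cells/well in EMEM with 10% FBS and treated with compound for 18 h at 37 °C. Remaining tagged protein was measured by Nano-Glo HiBiT lytic luminescence after 30–60 min at RT, and values came from curve fitting.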
A general note: HiBiT is a short tag that completes a luciferase, so light tracks the accessible tagged protein.

The target of assay [2] is T2, SMARCA4-HiBiT (Homo sapiens, UniProt P51532).
T2 construct: SMARCA4-HiBiT knock-in Hela monoclonal cell (CS3023226); host or cells: HeLa monoclonal knock-in line (CRISPR HiBiT knock-in at the endogenous locus, heterozygous)
T2 sequence (P51532 whole entry): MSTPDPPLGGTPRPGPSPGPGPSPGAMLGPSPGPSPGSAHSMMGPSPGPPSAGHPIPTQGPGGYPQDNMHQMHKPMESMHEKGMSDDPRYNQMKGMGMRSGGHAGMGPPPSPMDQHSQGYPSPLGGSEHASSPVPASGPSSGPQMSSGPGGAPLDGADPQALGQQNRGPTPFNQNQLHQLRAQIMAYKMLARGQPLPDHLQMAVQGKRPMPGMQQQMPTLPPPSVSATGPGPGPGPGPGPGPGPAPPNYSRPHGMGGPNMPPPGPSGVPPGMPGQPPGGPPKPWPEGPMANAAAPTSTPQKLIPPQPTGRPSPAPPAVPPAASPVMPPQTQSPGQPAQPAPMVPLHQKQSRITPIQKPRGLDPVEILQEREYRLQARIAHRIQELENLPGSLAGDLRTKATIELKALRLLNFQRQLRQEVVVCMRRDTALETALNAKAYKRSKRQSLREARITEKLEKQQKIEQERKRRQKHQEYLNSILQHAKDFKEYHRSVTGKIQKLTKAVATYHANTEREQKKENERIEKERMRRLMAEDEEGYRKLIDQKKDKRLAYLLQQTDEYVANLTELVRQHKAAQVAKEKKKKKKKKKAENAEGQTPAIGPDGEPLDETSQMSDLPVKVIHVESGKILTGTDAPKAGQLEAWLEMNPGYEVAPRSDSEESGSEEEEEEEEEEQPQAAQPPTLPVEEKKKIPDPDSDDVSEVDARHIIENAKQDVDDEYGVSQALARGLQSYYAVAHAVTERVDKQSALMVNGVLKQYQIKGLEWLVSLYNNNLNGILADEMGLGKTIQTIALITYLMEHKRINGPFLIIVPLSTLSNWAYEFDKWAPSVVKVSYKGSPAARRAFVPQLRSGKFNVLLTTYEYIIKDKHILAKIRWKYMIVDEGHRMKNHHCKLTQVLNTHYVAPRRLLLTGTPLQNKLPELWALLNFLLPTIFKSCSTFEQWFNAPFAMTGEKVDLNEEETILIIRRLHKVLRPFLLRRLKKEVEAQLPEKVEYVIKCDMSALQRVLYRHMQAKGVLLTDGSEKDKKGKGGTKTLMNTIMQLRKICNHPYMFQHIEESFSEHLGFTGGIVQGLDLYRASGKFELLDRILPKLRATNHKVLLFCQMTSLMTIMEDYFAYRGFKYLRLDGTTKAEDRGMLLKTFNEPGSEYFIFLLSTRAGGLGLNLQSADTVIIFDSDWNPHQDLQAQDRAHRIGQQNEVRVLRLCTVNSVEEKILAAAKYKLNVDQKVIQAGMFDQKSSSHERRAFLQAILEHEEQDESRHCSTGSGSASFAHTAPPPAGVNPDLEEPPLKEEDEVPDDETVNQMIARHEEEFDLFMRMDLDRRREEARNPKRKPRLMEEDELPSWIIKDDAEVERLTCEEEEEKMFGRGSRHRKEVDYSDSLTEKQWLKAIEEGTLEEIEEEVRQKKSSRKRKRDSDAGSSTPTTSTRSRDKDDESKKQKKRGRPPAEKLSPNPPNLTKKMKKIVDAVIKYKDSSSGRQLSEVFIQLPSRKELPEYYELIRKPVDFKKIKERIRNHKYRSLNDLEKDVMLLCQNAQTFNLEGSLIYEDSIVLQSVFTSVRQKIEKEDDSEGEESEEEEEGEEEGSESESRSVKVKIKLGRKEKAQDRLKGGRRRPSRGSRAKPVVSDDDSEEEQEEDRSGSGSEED
Put plainly: SMARCA4 HiBiT degradation assay in HeLa cells. In kind it is cell-based. Conditions: 18 hours incubation; for DC50: read-out: HeLa-HiBit-SM4 DC50; for Dmax: HeLa, read-out: HeLa-HiBit-SM4 Dmax (%). An outline of the steps: as §1

T1 sequence (P51531 whole entry): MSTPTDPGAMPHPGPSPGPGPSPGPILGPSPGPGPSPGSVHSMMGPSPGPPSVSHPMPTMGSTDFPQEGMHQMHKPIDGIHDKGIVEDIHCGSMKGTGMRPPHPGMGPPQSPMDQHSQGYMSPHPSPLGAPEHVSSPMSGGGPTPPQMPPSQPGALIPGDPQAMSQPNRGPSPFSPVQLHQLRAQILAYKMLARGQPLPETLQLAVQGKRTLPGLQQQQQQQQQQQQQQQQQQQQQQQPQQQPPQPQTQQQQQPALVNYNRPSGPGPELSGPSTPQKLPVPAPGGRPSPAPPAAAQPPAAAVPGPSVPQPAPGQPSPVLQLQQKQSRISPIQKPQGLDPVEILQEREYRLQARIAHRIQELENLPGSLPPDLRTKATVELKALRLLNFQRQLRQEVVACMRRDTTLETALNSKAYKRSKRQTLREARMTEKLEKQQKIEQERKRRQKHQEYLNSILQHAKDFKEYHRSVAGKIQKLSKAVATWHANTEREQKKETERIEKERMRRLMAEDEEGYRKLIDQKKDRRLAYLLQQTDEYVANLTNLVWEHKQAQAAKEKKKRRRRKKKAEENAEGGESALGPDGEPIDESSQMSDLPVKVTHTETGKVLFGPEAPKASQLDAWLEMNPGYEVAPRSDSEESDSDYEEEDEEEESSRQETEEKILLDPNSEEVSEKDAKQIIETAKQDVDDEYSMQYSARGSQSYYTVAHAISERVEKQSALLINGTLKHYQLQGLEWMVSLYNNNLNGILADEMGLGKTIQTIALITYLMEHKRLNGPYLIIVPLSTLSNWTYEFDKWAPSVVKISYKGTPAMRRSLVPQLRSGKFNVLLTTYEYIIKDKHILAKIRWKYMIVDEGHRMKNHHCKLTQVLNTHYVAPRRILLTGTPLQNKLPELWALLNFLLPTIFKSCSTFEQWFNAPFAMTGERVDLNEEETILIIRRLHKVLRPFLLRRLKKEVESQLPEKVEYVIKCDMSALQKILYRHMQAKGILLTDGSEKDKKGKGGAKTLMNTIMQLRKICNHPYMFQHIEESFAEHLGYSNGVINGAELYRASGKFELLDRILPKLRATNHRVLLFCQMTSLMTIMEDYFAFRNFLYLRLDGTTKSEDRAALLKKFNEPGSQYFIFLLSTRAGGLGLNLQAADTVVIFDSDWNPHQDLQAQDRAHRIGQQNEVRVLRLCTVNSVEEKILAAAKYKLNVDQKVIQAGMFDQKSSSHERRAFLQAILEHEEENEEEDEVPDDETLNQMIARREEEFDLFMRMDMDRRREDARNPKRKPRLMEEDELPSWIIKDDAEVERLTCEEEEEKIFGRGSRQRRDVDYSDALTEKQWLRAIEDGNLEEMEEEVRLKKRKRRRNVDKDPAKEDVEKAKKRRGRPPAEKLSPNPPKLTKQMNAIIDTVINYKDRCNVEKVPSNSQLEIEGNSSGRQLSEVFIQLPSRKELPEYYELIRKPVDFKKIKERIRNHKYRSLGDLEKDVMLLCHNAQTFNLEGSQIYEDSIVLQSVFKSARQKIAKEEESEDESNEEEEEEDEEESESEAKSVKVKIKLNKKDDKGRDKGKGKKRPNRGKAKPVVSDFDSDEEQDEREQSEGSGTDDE

Turning to `C[C@H]1CN2c3cc(-c4ccccc4O)nnc3NC[C@H]2CN1C(=O)N1CCN(CC2CCN(c3ccc4c(c3)C(=O)N(C3CCC(=O)NC3=O)C4)CC2)CC1` (stereo partly drawn) [Example 99, 3-(6-(4-((4-((6aS,9S)-2-(2-hydroxyphenyl)-9-methyl-6,6a,7,8,9,10-hexahydro-5H-pyrazino[1′,2′:4,5]pyrazino[2,3-c]pyridazine-8-carbonyl)piperazin-1-yl)methyl)piperidin-1-yl)-1-oxoisoindolin-2-yl)piperidine-2,6-dione], in assay [1], the DC50 (in general, the midpoint of the concentration-degradation curve) was less than 10 nM and the Dmax (usually the largest share of the target that was removed) is greater than 85%. Also, in assay [2], the 50% degradation concentration (DC50) is 10 to 100 nM and the Dmax is 75 to 85%.

Consider `O=C1CCC(N2C(=O)c3ccc(NCCN4C[C@@H]5[C@H](C4)[C@H]5CN4CCN5c6cc(-c7ccccc7O)nnc6NC[C@H]5C4)cc3C2=O)C(=O)N1` (stereo partly drawn) [Example 153, 2-(2,6-dioxopiperidin-3-yl)-5-((2-((1R,5S,6r)-6-(((S)-2-(2-hydroxyphenyl)-5,6,6a,7,9,10-hexahydro-8H-pyrazino[1′,2′:4,5]pyrazino[2,3-c]pyridazin-8-yl)methyl)-3-azabicyclo[3.1.0]hexan-3-yl)ethyl)amino)isoindoline-1,3-dione], for which, in assay [1], the DC50 was less than 10 nM and the Dmax was 50 to 75%. Moreover, in assay [2], the DC50 fell in the range of 10 to 100 nM and the Dmax was 75 to 85%.

Regarding `O=C1CCC(N2C(=O)c3ccc(N4CC[C@H](CN5C[C@@H]6[C@H](C5)[C@H]6CN5CCN6c7cc(-c8c(O)cccc8F)nnc7NC[C@H]6C5)[C@@H](F)C4)cc3C2=O)C(=O)N1` (stereo partly drawn) [Example 281, 2-(2,6-dioxopiperidin-3-yl)-5-((3R,4R)-3-fluoro-4-(((1R,5S,6R)-6-(((S)-2-(2-fluoro-6-hydroxyphenyl)-5,6,6a,7,9,10-hexahydro-8H-pyrazino[1′,2′:4,5]pyrazino[2,3-c]pyridazin-8-yl)methyl)-3-azabicyclo[3.1.0]hexan-3-yl)methyl)piperidin-1-yl) isoindoline-1,3-dione], in assay [1], the DC50 is less than 10 nM and the Dmax lay within 75 to 85%. In addition, in assay [2], the DC50 lay within 10 to 100 nM and the Dmax was no more than 50%.

Turning to `CC1CN(c2ccc3c(c2)C(=O)N(C2CCC(=O)NC2=O)C3=O)CCC1CN1C[C@@H]2[C@H](C1)[C@H]2CN1CCN2c3cc(-c4ccccc4O)nnc3NC[C@H]2C1` (stereo partly drawn) [Example 198, 2-(2,6-dioxopiperidin-3-yl)-5-(4-(((1R,5S,6r)-6-(((S)-2-(2-hydroxyphenyl)-5,6,6a,7,9,10-hexahydro-8H-pyrazino[1′,2′:4,5]pyrazino[2,3-c]pyridazin-8-yl)methyl)-3-azabicyclo[3.1.0]hexan-3-yl)methyl)-3-methylpiperidin-1-yl)isoindoline-1,3-dione], in assay [1], the “HeLa-HiBit-SM2 Dmax (%)” value is listed as “A (A=Dmax>85%)” and the DC50 was less than 10 nM. In addition, in assay [2], the “HeLa-HiBit-SM4 Dmax (%)” value is recorded as “C (C=50%<Dmax<=75%)” and the DC50 is less than 10 nM.

Turning to `O=C1CCC(N2C(=O)c3ccc(N4CCC(CN5C6COCC5CC(CN5CCN7c8cc(-c9ccccc9O)nnc8NC[C@H]7C5)C6)CC4)cc3C2=O)C(=O)N1` (stereo partly drawn) [Example 133, 2-(2,6-dioxopiperidin-3-yl)-5-(4-((7-(((S)-2-(2-hydroxyphenyl)-5,6,6a,7,9,10-hexahydro-8H-pyrazino[1′,2′:4,5]pyrazino[2,3-c]pyridazin-8-yl)methyl)-3-oxa-9-azabicyclo[3.3.1]nonan-9-yl)methyl)piperidin-1-yl)isoindoline-1,3-dione], the DC50 in assay [1] and in assay [2] was less than 10 nM throughout. Moreover, the Dmax in assay [1] and in assay [2] was 50 to 75% throughout.

With `O=C1CCC(N2C(=O)c3ccc(N4CCC(CN5CCC(CN6CCN7c8cc(-c9ccccc9O)nnc8NC[C@H]7C6)C(F)(F)C5)CC4)cc3C2=O)C(=O)N1` (stereo partly drawn) [Example 260, 5-(4-((3,3-difluoro-4-(((S)-2-(2-hydroxyphenyl)-5,6,6a,7,9,10-hexahydro-8H-pyrazino[1′,2′:4,5]pyrazino[2,3-c]pyridazin-8-yl)methyl)piperidin-1-yl)methyl)piperidin-1-yl)-2-(2,6-dioxopiperidin-3-yl)isoindoline-1,3-dione], the results for the DC50 in assay [1] and in assay [2] were less than 10 nM and 10 to 100 nM, respectively. Also, the Dmax in assay [1] and in assay [2] was 75 to 85% throughout.

Regarding `CN(CCN1CCC(N2CCN3c4cc(-c5ccccc5O)nnc4NC[C@H]3C2)CC1)c1cccc2c1C(=O)N(C1CCC(=O)NC1=O)C2=O` (stereo partly drawn) [Example 68, 2-(2,6-dioxopiperidin-3-yl)-4-((2-(4-((S)-2-(2-hydroxyphenyl)-5,6,6a,7,9,10-hexahydro-8H-pyrazino[1′,2′:4,5]pyrazino[2,3-c]pyridazin-8-yl)piperidin-1-yl)ethyl)(methyl)amino)isoindoline-1,3-dione], in assay [1], the DC50 was less than 10 nM and the Dmax is greater than 85%. For the same compound, in assay [2], the DC50 lay in the range of 10 to 100 nM and the Dmax is greater than 85%.

In the case of `CC(CN1CCN2c3cc(-c4ccccc4O)nnc3NC[C@H]2C1)C1CCN(CC2CCN(c3ccc4c(c3)C(=O)N(C3CCC(=O)NC3=O)C4=O)CC2)CC1` (stereo partly drawn) [Example 249, 2-(2,6-dioxopiperidin-3-yl)-5-(4-((4-(1-((S)-2-(2-hydroxyphenyl)-5,6,6a,7,9,10-hexahydro-8H-pyrazino[1′,2′:4,5]pyrazino[2,3-c]pyridazin-8-yl)propan-2-yl)piperidin-1-yl)methyl)piperidin-1-yl)isoindoline-1,3-dione], in assay [1], the DC50 is less than 10 nM and the Dmax is greater than 85%. Also, in assay [2], the DC50 was less than 10 nM and the Dmax is greater than 85%.

Turning to `O=C1CCC(N2C(=O)c3ccc(N4CCC(CNC56CCC(C(=O)N7CCN8c9cc(-c%10ccccc%10O)nnc9NC[C@H]8C7)(CC5)CC6)CC4)cc3C2=O)C(=O)N1` (stereo partly drawn) [Example 81, 2-(2,6-dioxopiperidin-3-yl)-5-(4-(((4-((S)-2-(2-hydroxyphenyl)-6,6a,7,8,9,10-hexahydro-5H-pyrazino[1′,2′:4,5]pyrazino[2,3-c]pyridazine-8-carbonyl)bicyclo[2.2.2]octan-1-yl)amino)methyl)piperidin-1-yl)isoindoline-1dione], in assay [1], the DC50 was less than 10 nM and the Dmax was in the range of 75 to 85%. Further, in assay [2], the DC50 was less than 10 nM and the maximal degradation (Dmax) was in the range of 75 to 85%.

On to `C[C@@H]1CN(CC2CCN(c3ccc4c(c3)C(=O)N(C3CCC(=O)NC3=O)C4)CC2)CCN1C(=O)N1CCN2c3cc(-c4ccccc4O)nnc3NC[C@H]2C1` (stereo partly drawn) [Example 114, 3-(6-(4-(((R)-4-((S)-2-(2-hydroxyphenyl)-6,6a,7,8,9,10-hexahydro-5H-pyrazino[1′,2′:4,5]pyrazino[2,3-c]pyridazine-8-carbonyl)-3-methylpiperazin-1-yl)methyl)piperidin-1-yl)-1-oxoisoindolin-2-yl)piperidine-2,6-dione], for which the DC50 in assay [1] and in assay [2] was less than 10 nM throughout. Moreover, the values for the Dmax in assay [1] and in assay [2] were greater than 85% and 75 to 85%, respectively.

With `O=C1CCC(N2C(=O)c3ccc(N4CCC(O)(CN5C[C@@H]6[C@@H](CN7CCN8c9cc(-c%10ccccc%10O)nnc9NC[C@H]8C7)[C@@H]6C5)CC4)cc3C2=O)C(=O)N1` (stereo partly drawn) [Example 47, 2-(2,6-dioxopiperidin-3-yl)-5-(4-hydroxy-4-(((1R,5S,6s)-6-(((S)-2-(2-hydroxyphenyl)-5,6,6a,7,9,10-hexahydro-811-pyrazino[1′,2′:4,5]pyrazino[2,3-c]pyridazin-8-yl)methyl)-3-azabicyclo[3.1.0]hexan-3-yl)methyl)piperidin-1-yl) isoindoline-1,3-dione], in assay [1], the DC50 was less than 10 nM and the Dmax is greater than 85%. Besides, in assay [2], the DC50 is less than 10 nM and the Dmax lay in the range of 50 to 75%.

For the compound `O=C1CCC(N2C(=O)c3ccc(N4CCC(CN5CCO[C@@H](CN6CCN7c8cc(-c9ccccc9O)nnc8NC[C@H]7C6)C5)CC4)cc3C2=O)C(=O)N1` (some centres unmarked) [Example 74], in assay [1], the DC50 is less than 10 nM and the Dmax was greater than 85%. In assay [2], the DC50 was less than 10 nM and the Dmax was greater than 85%.

For the compound `O=C1CCC(N2C(=O)c3ccc(N4CCC(NC5CCC(CN6CCN7c8cc(-c9ccccc9O)nnc8NC[C@H]7C6)CC5)CC4)cc3C2=O)C(=O)N1` (stereo partly drawn) [Example 163, 2-(2,6-dioxopiperidin-3-yl)-5-[4-[[4-[[(10S)-4-(2-hydroxyphenyl)-1,5,6,8,12-pentazatricyclo[8.4.0.02,7]tetradeca-2,4,6-trien-12-yl]methyl]cyclohexyl]amino]piperidin-1-yl]isoindole-1,3-dione], the DC50 in assay [1] and in assay [2] was less than 10 nM in each case. For the same compound, the Dmax in assay [1] and in assay [2] was greater than 85% in each case.

For the compound `CN(CCCN1CCN2c3cc(-c4ccccc4O)nnc3NC[C@H]2C1)CC1CCN(c2ccc3c(c2)C(=O)N(C2CCC(=O)NC2=O)C3=O)CC1` (stereo partly drawn) [Example 40, 2-(2,6-dioxopiperidin-3-yl)-5-(4-(((3-((S)-2-(2-hydroxyphenyl)-5,6,6a,7,9,10-hexahydro-8H-pyrazino[1′,2′:4,5]pyrazino[2,3-c]pyridazin-8-yl)propyl)(methyl)amino)methyl)piperidin-1-yl)isoindoline-1,3-dione], in assay [1], the DC50 is less than 10 nM and the Dmax lay in the range of 50 to 75%. In assay [2], the DC50 is less than 10 nM and the Dmax lay within 50 to 75%.
